Assay results taken from ChEMBL document CHEMBL3734741, “Pyrazole clubbed triazolo[1,5-a]pyrimidine hybrids as an anti-tubercular agents: Synthesis, in vitro screening and molecular docking study” (Bioorg Med Chem, 2015).
Values after ≈ are worked out from the molar mass of the structure shown.

How the values were obtained:
[1] = tested on: Mycobacterium tuberculosis; experiment: Antituberculosis activity against Mycobacterium tuberculosis H37Rv MTCC 300 at 6.25 ug/ml after 4 weeks by Lowenstein-Jensen medium method; assay type: functional; settings: H37Rv MTCC 300, 672 h
[2] = tested on: Mycobacterium tuberculosis; experiment: Antituberculosis activity against Mycobacterium tuberculosis H37Rv MTCC 300 after 4 weeks by Lowenstein-Jensen medium method; assay type: functional; settings: H37Rv MTCC 300, 672 h
[3] = Selectivity index, ratio of CC50 for African green monkey Vero cells to IC50 Mycobacterium tuberculosis InhA; assay type: functional
[4] = Cytotoxicity against African green monkey Vero cells after 72 hrs by MTT assay; assay type: cell-based; settings: chlorocebus sabaeus
[5] = Inhibition of Mycobacterium tuberculosis InhA assessed as conversion of crotonoyl-CoA to butyryl-CoA by spectrophotometric method

SMILES	inhibition at 6.25 µg/mL [1] [%]	other results
CC(C)C1=C(C(=O)Nc2ccccn2)C(c2cn(-c3ccccc3)nc2-c2ccc(Cl)cc2)n2ncnc2N1 (stereo not given)	81	–
Cc1ccc(NC(=O)C2=C(C(C)C)Nc3ncnn3C2c2cn(-c3ccccc3)nc2-c2ccc(Cl)cc2)nc1 (stereo not given)	76	–
Cc1ccc(-c2nn(-c3ccccc3)cc2C2C(C(=O)Nc3ccc(Br)cn3)=C(C(C)C)Nc3ncnn32)cc1 (stereo not given)	66	–
CC(C)C1=C(C(=O)Nc2ccc(Br)cn2)C(c2cn(-c3ccccc3)nc2-c2ccc(F)cc2)n2ncnc2N1 (stereo not given)	88	–
CC1=C(C(=O)Nc2ccccn2)C(c2cn(-c3ccccc3)nc2-c2ccc([N+](=O)[O-])cc2)n2ncnc2N1 (stereo not given)	84	–
CC1=C(C(=O)Nc2ccccn2)C(c2cn(-c3ccccc3)nc2-c2ccc(Cl)cc2)n2ncnc2N1 (stereo not given)	84	–
CC(C)C1=C(C(=O)Nc2ccc(Br)cn2)C(c2cn(-c3ccccc3)nc2-c2ccc([N+](=O)[O-])cc2)n2ncnc2N1 (stereo not given)	78	–
CC(C)C1=C(C(=O)Nc2ccccn2)C(c2cn(-c3ccccc3)nc2-c2ccc(F)cc2)n2ncnc2N1 (stereo not given)	84	–
CC1=C(C(=O)Nc2ccccn2)C(c2cn(-c3ccccc3)nc2-c2ccc(C)cc2)n2ncnc2N1 (stereo not given)	56	–
CC(C)C1=C(C(=O)Nc2ccc(Br)cn2)C(c2cn(-c3ccccc3)nc2-c2ccccc2)n2ncnc2N1 (stereo not given)	54	–
Cc1ccc(NC(=O)C2=C(C(C)C)Nc3ncnn3C2c2cn(-c3ccccc3)nc2-c2ccc(F)cc2)nc1 (stereo not given)	82	–
Cc1ccc(NC(=O)C2=C(C(C)C)Nc3ncnn3C2c2cn(-c3ccccc3)nc2-c2ccccc2)nc1 (stereo not given)	42	–
CC1=C(C(=O)Nc2ccccn2)C(c2cn(-c3ccccc3)nc2-c2ccccc2)n2ncnc2N1 (stereo not given)	72	–
Cc1ccc(NC(=O)C2=C(C(C)C)Nc3ncnn3C2c2cn(-c3ccccc3)nc2-c2ccc([N+](=O)[O-])cc2)nc1 (stereo not given)	68	–
CC1=C(C(=O)Nc2ccc(Br)cn2)C(c2cn(-c3ccccc3)nc2-c2ccccc2)n2ncnc2N1 (stereo not given)	95	MIC [2]: 3.13 µg/mL (≈ 5.66 µM); Ratio CC50/IC50 [3]: 29.41; CC50 at 72 h [4]: 25 µg/mL (≈ 45.2 µM); IC50 [5]: 0.85 µg/mL (≈ 1.54 µM)
Cc1ccc(-c2nn(-c3ccccc3)cc2C2C(C(=O)Nc3ccccn3)=C(C(C)C)Nc3ncnn32)cc1 (stereo not given)	55	–
Cc1ccc(-c2nn(-c3ccccc3)cc2C2C(C(=O)Nc3ccc(C)cn3)=C(C(C)C)Nc3ncnn32)cc1 (stereo not given)	46	–

SMILES	inhibition at 6.25 µg/mL [1] [%]	other results
CC1=C(C(=O)Nc2ccc(Br)cn2)C(c2cn(-c3ccccc3)nc2-c2ccc(Cl)cc2)n2ncnc2N1 (stereo not given)	98	MIC [2]: 0.78 µg/mL (≈ 1.33 µM); Ratio CC50/IC50 [3]: 181.81; CC50 at 72 h [4]: 20 µg/mL (≈ 34 µM); IC50 [5]: 0.11 µg/mL (≈ 0.187 µM)
CC1=C(C(=O)Nc2ccc(Br)cn2)C(c2cn(-c3ccccc3)nc2-c2ccc(F)cc2)n2ncnc2N1 (stereo not given)	99	MIC [2]: 0.39 µg/mL (≈ 0.683 µM); Ratio CC50/IC50 [3]: 181.81; CC50 at 72 h [4]: 20 µg/mL (≈ 35 µM); IC50 [5]: 0.11 µg/mL (≈ 0.193 µM)
CC1=C(C(=O)Nc2ccccn2)C(c2cn(-c3ccccc3)nc2-c2ccc(F)cc2)n2ncnc2N1 (stereo not given)	99	MIC [2]: 0.78 µg/mL (≈ 1.58 µM); Ratio CC50/IC50 [3]: 125; CC50 at 72 h [4]: 20 µg/mL (≈ 40.6 µM); IC50 [5]: 0.16 µg/mL (≈ 0.325 µM)
CC1=C(C(=O)Nc2ccc(C)cn2)C(c2cn(-c3ccccc3)nc2-c2ccc(Cl)cc2)n2ncnc2N1 (stereo not given)	79	–
CC1=C(C(=O)Nc2ccc(C)cn2)C(c2cn(-c3ccccc3)nc2-c2ccc(F)cc2)n2ncnc2N1 (stereo not given)	86	–
CC1=C(C(=O)Nc2ccc(Br)cn2)C(c2cn(-c3ccccc3)nc2-c2ccc([N+](=O)[O-])cc2)n2ncnc2N1 (stereo not given)	96	MIC [2]: 1.56 µg/mL (≈ 2.61 µM); Ratio CC50/IC50 [3]: 89.28; CC50 at 72 h [4]: 25 µg/mL (≈ 41.8 µM); IC50 [5]: 0.28 µg/mL (≈ 0.468 µM)
CC1=C(C(=O)Nc2ccc(Br)cn2)C(c2cn(-c3ccccc3)nc2-c2ccc(C)cc2)n2ncnc2N1 (stereo not given)	64	–
CC(C)C1=C(C(=O)Nc2ccc(Br)cn2)C(c2cn(-c3ccccc3)nc2-c2ccc(Cl)cc2)n2ncnc2N1 (stereo not given)	84	–
CC(C)C1=C(C(=O)Nc2ccccn2)C(c2cn(-c3ccccc3)nc2-c2ccc([N+](=O)[O-])cc2)n2ncnc2N1 (stereo not given)	74	–
CC1=C(C(=O)Nc2ccc(C)cn2)C(c2cn(-c3ccccc3)nc2-c2ccc([N+](=O)[O-])cc2)n2ncnc2N1 (stereo not given)	68	–
CC1=C(C(=O)Nc2ccc(C)cn2)C(c2cn(-c3ccccc3)nc2-c2ccc(C)cc2)n2ncnc2N1 (stereo not given)	49	–
CC(C)C1=C(C(=O)Nc2ccccn2)C(c2cn(-c3ccccc3)nc2-c2ccccc2)n2ncnc2N1 (stereo not given)	45	–
CC1=C(C(=O)Nc2ccc(C)cn2)C(c2cn(-c3ccccc3)nc2-c2ccccc2)n2ncnc2N1 (stereo not given)	66	–
CC[C@@H](CO)NCCN[C@@H](CC)CO [ETHAMBUTOL]	99	MIC [2]: 3.12 µg/mL (≈ 15.3 µM)
NNC(=O)c1ccncc1 [ISONIAZID]	–	MIC [2]: 0.3 µg/mL (≈ 2.19 µM)
CO[C@H]1/C=C/O[C@@]2(C)Oc3c(C)c(O)c4c(O)c(c(/C=N/N5CCN(C)CC5)c(O)c4c3C2=O)NC(=O)/C(C)=C\C=C\[C@H](C)[C@H](O)[C@@H](C)[C@@H](O)[C@@H](C)[C@H](OC(C)=O)[C@@H]1C [RIFAMPIN]	99	MIC [2]: 0.5 µg/mL (≈ 0.608 µM)
